The values below come from ChEMBL document CHEMBL4385613, “Discovery of Conformational Control Inhibitors Switching off the Activated c-KIT and Targeting a Broad Range of Clinically Relevant c-KIT Mutants” (J Med Chem, 2019).

Active and inactive are the calls of the source. No cut-off for these calls is given here.

What is called inhibition is how much of the control response was suppressed. Broadly, the GI50 is the concentration giving 50% growth inhibition. Usually IC50 stands for the midpoint of a concentration-inhibition curve. By half-life is commonly meant how long it takes for the measured level to halve. Read a high half-life as slow decline.

Series [1] has as its system Mast/stem cell growth factor receptor Kit (Homo sapiens), P10721 [T670I]. Kind of series: Inhibition of human c-KIT ATP binding domain exon 14 T670I single mutant at 10 nM using poly (Glu,Tyr) 4:1 as substrate in presence of 33P-gamma-ATP by hotspot kinase assay relative to control.
For series [2], the system named is GIST882. Kind of series: Antiproliferative activity against human GIST882 cells harboring c-KIT exon 13 homozygous primary K642E mutant assessed as reduction in cell viability by methylene blue staining based assay. In kind it is functional.
The test system of series [3] is Mast/stem cell growth factor receptor Kit (Homo sapiens), P10721 [UNDEFINED MUTATION]. Description: Inhibition of c-KIT V560-L576 deletion/V654A double mutant phosphorylation in human GIST430 cells assessed as decrease in phosphorylation of MAPK at 10 to 100 nM measured after 24 to 72 hrs by Western blot analysis. In kind it is cell-based.
Series [4] concerns Mast/stem cell growth factor receptor Kit (Homo sapiens), P10721 [V560G,D816V]. Kind of series: Inhibition of human c-KIT A loop exon 11/17 V560G/D816V double mutant at 10 nM using poly (Glu,Tyr) 4:1 as substrate in presence of 33P-gamma-ATP by hotspot kinase assay relative to control.
In series [5] the test system is Mast/stem cell growth factor receptor Kit (Homo sapiens), P10721 [D820E]. Particulars: at 10 nM.
Description: Inhibition of human c-KIT A loop exon 17 D820E single mutant at 10 nM using poly (Glu,Tyr) 4:1 as substrate in presence of 33P-gamma-ATP by hotspot kinase assay relative to control
The subject of series [6] is Mast/stem cell growth factor receptor Kit (Homo sapiens), P10721 [D816H]. Conditions: at 10 nM.
Description: Inhibition of human c-KIT A loop exon 17 D816H single mutant at 10 nM using poly (Glu,Tyr) 4:1 as substrate in presence of 33P-gamma-ATP by hotspot kinase assay relative to control
For the next series, the system named is Mus musculus. Kind of series: Decrease in c-KIT phosphorylation in po dosed NOD-SCID mouse xenografted with human GIST430 cells harboring c-KIT exon 11 primary in-frame V560-L576 deletion mutant and exon 13 heterozygous secondary missense V654A mutant measured after 8 hrs by immunoblotting method. It counts as functional, organism-based.
The test system of the next series is PC-3. Kind of series: Antiproliferative activity against human PC3 assessed as reduction in cell viability after 72 hrs by MTS assay. It counts as functional. Conditions: PC-3, 72 h.
For series [7], the target named is Mast/stem cell growth factor receptor Kit (Homo sapiens, UniProt P10721, D816V). Kind of series: Inhibition of human c-KIT A loop exon 17 D816V single mutant using poly (Glu,Tyr) 4:1 as substrate in presence of 33P-gamma-ATP by hotspot kinase assay.
The target in series [8] is Mast/stem cell growth factor receptor Kit (Homo sapiens, UniProt P10721, D820Y). Kind of series: Inhibition of human c-KIT A loop exon 17 D820Y single mutant using poly (Glu,Tyr) 4:1 as substrate in presence of 33P-gamma-ATP by hotspot kinase assay.
Series [9] has as its system GIST882. Kind of series: Antiproliferative activity against human GIST882 cells harboring c-KIT exon 13 homozygous primary K642E mutant assessed as reduction in cell viability by MTS assay. In kind it is functional. For orientation: Formazan colour is commonly taken as a measure of viable cells.
Series [10] concerns Mast/stem cell growth factor receptor Kit (Homo sapiens), P10721 [K642E]. Kind of series: Inhibition of human c-KIT ATP binding domain exon 13 K642E single mutant at 100 nM using poly (Glu,Tyr) 4:1 as substrate in presence of 33P-gamma-ATP by hotspot kinase assay relative to control.
For series [11], the system named is Mast/stem cell growth factor receptor Kit (Homo sapiens), P10721 [T670I]. Kind of series: Inhibition of human c-KIT ATP binding domain exon 14 T670I single mutant at 100 nM using poly (Glu,Tyr) 4:1 as substrate in presence of 33P-gamma-ATP by hotspot kinase assay relative to control.
The test system of a further series is GIST430. Kind of series: Antiproliferative activity against human GIST430 cells harboring c-KIT exon 11 primary in-frame V560-L576 deletion mutant and exon 13 heterozygous secondary missense V654A mutant assessed as reduction in cell viability by MTS assay. In kind it is functional.
Series [12] deals with Mast/stem cell growth factor receptor Kit (Homo sapiens), P10721 [D816V]. Conditions: at 10 nM.
Description: Inhibition of human c-KIT A loop exon 17 D816V single mutant at 10 nM using poly (Glu,Tyr) 4:1 as substrate in presence of 33P-gamma-ATP by hotspot kinase assay relative to control
Series [13] is described as follows: Half life in ICR mouse at 10 mg/kg, po administered as single dose measured up to 24 hrs by LC-MS/MS analysis. In kind it is ADME, organism-based. Conditions: in vivo.
The test system of another series is GIST48. Kind of series: Antiproliferative activity against human GIST48 cells harboring c-KIT exon 11 homozygous primary missense V560D mutant and exon 17 heterozygous secondary D820A mutant assessed as reduction in cell viability by MTS assay. In kind it is functional.

Sequence of Mast/stem cell growth factor receptor Kit (Homo sapiens), P10721 [T670I] (P10721 whole entry T670I, the tested form may be a part): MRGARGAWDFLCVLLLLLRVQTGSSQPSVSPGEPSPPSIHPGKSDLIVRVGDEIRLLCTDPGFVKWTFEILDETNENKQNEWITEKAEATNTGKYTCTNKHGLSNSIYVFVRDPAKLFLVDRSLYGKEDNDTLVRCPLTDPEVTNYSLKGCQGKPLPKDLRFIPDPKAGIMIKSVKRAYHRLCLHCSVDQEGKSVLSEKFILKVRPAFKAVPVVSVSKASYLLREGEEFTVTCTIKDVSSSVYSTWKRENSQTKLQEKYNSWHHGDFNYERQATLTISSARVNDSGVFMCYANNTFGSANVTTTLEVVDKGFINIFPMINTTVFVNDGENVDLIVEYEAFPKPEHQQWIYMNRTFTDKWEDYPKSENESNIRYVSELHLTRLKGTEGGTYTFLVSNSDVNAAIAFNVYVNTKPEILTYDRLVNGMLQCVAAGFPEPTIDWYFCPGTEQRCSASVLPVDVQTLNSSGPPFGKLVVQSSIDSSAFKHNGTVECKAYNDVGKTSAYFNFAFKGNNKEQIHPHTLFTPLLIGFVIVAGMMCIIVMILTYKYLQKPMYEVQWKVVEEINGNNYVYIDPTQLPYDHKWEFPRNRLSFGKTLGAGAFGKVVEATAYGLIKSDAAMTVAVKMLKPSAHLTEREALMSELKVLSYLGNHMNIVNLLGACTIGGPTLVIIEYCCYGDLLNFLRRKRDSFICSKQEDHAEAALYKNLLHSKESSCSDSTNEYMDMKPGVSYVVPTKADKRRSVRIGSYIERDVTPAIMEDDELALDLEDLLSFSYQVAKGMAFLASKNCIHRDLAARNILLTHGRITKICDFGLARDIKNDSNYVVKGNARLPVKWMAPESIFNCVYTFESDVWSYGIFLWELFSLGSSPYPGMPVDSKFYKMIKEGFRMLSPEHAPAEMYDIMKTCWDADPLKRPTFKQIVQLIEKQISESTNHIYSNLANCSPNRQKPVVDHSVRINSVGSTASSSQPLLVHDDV
Sequence of Mast/stem cell growth factor receptor Kit (Homo sapiens, UniProt P10721, D816V) (P10721 26-976 D816V limits assumed): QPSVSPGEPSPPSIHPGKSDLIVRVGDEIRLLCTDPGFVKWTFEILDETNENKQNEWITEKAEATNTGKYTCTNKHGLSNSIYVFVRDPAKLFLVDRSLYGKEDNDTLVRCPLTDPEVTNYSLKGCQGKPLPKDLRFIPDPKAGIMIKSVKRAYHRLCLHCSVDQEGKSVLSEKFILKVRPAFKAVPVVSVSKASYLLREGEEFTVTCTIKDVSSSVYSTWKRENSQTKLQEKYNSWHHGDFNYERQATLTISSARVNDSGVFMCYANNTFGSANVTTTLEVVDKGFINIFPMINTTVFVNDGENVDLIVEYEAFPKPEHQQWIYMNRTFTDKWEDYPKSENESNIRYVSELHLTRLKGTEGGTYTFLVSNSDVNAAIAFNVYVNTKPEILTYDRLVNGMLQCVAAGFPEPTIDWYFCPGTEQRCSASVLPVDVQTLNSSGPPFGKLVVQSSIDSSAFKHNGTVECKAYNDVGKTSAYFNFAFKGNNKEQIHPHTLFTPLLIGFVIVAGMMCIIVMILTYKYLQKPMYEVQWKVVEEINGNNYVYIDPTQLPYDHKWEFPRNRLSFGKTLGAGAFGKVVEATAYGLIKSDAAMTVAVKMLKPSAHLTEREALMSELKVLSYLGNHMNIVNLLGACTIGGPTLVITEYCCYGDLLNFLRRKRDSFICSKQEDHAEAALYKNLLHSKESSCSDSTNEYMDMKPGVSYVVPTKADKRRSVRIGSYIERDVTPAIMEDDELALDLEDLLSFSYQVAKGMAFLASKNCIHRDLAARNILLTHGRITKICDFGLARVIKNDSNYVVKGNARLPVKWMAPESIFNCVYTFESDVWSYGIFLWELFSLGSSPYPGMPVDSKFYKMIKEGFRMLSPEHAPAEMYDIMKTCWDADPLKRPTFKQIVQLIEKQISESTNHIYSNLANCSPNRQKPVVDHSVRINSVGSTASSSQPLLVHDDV
Sequence of Mast/stem cell growth factor receptor Kit (Homo sapiens), P10721 [D816H] (P10721 whole entry D816H): as the sequence (P10721 whole entry T670I, the tested form may be a part) above, with I670T, D816H counted along it
Sequence of Mast/stem cell growth factor receptor Kit (Homo sapiens), P10721 [UNDEFINED MUTATION] (P10721 whole entry, looked up, stated change not applied): as the sequence (P10721 whole entry T670I, the tested form may be a part) above, with I670T counted along it
Sequence of Mast/stem cell growth factor receptor Kit (Homo sapiens), P10721 [V560G,D816V] (P10721 whole entry V560G/D816V): as the sequence (P10721 whole entry T670I, the tested form may be a part) above, with V560G, I670T, D816V counted along it
Sequence of Mast/stem cell growth factor receptor Kit (Homo sapiens), P10721 [D816V] (P10721 whole entry D816V): as the sequence (P10721 whole entry T670I, the tested form may be a part) above, with I670T, D816V counted along it
Sequence of Mast/stem cell growth factor receptor Kit (Homo sapiens, UniProt P10721, D820Y) (P10721 26-976 D820Y limits assumed): as the sequence (P10721 26-976 D816V limits assumed) above, with V791D, D795Y counted along it
Sequence of Mast/stem cell growth factor receptor Kit (Homo sapiens), P10721 [K642E] (P10721 whole entry K642E, the tested form may be a part): as the sequence (P10721 whole entry T670I, the tested form may be a part) above, with K642E, I670T counted along it
Sequence of Mast/stem cell growth factor receptor Kit (Homo sapiens), P10721 [D820E] (P10721 whole entry D820E): as the sequence (P10721 whole entry T670I, the tested form may be a part) above, with I670T, D820E counted along it

Regarding `CCc1cc(NC(=O)Nc2ccc(-c3cnc(Nc4cc(N5CCN(CC)CC5)ncn4)s3)cc2)no1`, the inhibition in series [1] worked out at 55%; in series [4] it was 22%; in series [5], 83%; in [6] it was 73%; in [10] it was 99%; in series [11], 83%. The same molecule returned an inhibition in [12] of 37%. In addition, the GI50 with GIST882 [2] was 3 nM; in the series with PC-3 it was more than 20000 nM; with GIST882 [9], 3 nM; in the series with GIST430, 1 nM; in the series on GIST48, 2 nM. Besides, the inhibition entry in series [3] is “Active”. For the same molecule, the Activity entry with Mus musculus is “Dose-dependent effect”. Also, the half-maximal inhibitory concentration (IC50) in [7] is 8.56 nM; in series [8] it was 0.02 nM. The molecule further had a half-life in series [13] of 2.8 h.
